From ChEMBL document CHEMBL1153290, “Development of multitargeted inhibitors of both the insulin-like growth factor receptor (IGF-IR) and members of the epidermal growth factor family of receptor tyrosine kinases” (Bioorg Med Chem Lett, 2009) come the findings set out here.

Series [1] addresses T1, Receptor tyrosine-protein kinase erbB-2 (Homo sapiens, UniProt P04626). Nature of the series: Inhibition of ErbB2 phosphorylation in IGF1 and EGF-stimulated human N87 cells pretreated for 6 hrs before IGF1 and EGF stimulation by ELISA. In kind it is cell-based, NCI-N87. In general terms: In an ELISA, binding on a coated surface is turned into a signal by an enzyme label.

Series [2] has as its target T2, Insulin-like growth factor 1 receptor (Homo sapiens, UniProt P08069). Nature of the series: Inhibition of IGF1R by time resolved fluorescence assay.
Series [3] addresses T2, Insulin-like growth factor 1 receptor. The series is described as follows: Inhibition of IGF1R phosphorylation in IGF1 and EGF-stimulated human MiaPaCa2 cells pretreated for 6 hrs before IGF1 and EGF stimulation by ELISA. In kind it is cell-based.
Series [4] concerns the target T1, Receptor tyrosine-protein kinase erbB-2. Nature of the series: Inhibition of ErbB2 by time resolved fluorescence assay.
For series [5], the target named is Epidermal growth factor receptor (Homo sapiens, UniProt P00533). The series is described as follows: Inhibition of EGFR phosphorylation in IGF1 and EGF-stimulated human MiaPaCa2 cells pretreated for 6 hrs before IGF1 and EGF stimulation by ELISA. In kind it is cell-based.
Series [6] addresses Epidermal growth factor receptor (Homo sapiens, UniProt P00533, L858R).
For series [7], the system named is Mus musculus. Nature of the series: Inhibition of EGFR phosphorylation in IGF1 and EGF-stimulated mouse liver at 50 mg/kg, po pretreated 4 hrs before IGF1 and EGF stimulation. Further details: dose 50 mg/kg. In kind it is functional, organism-based.
A short description of series [8]: Half life in mouse. In kind it is ADME, organism-based. To be noted: in vivo.
Series [9] relates to Mus musculus. The series is described as follows: Inhibition of IGF1R phosphorylation in IGF1 and EGF-stimulated mouse lung at 50 mg/kg, ip pretreated 4 hrs before IGF1 and EGF stimulation. In kind it is functional, organism-based. Further details: dose 50 mg/kg.
For series [10], the system named is Mus musculus. The series is described as follows: Dose normalized AUC in iv dosed mouse. In kind it is ADME, organism-based. The following applies: in vivo.
In the next series the target is Cytochrome P450 3A4 (Homo sapiens, UniProt P08684). The series is described as follows: Inhibition of human CYP3A4. In kind it is ADME.
Series [11] relates to Mus musculus. The series is described as follows: Dose normalized AUC in po dosed mouse. To be noted: in vivo. In kind it is ADME, organism-based.
For series [12], the system named is Mus musculus. Nature of the series: Inhibition of IGF1R phosphorylation in IGF1 and EGF-stimulated mouse lung at 50 mg/kg, po pretreated 4 hrs before IGF1 and EGF stimulation. In kind it is functional, organism-based. Details: dose 50 mg/kg.
The next series concerns the target Cytochrome P450 2D6 (Homo sapiens, UniProt P10635). The series is described as follows: Inhibition of human CYP2D6. In kind it is ADME.
For series [13], the system named is Mus musculus. Nature of the series: Dose normalized AUC in ip dosed mouse. In kind it is ADME, organism-based. To be noted: in vivo.
For series [14], the system named is Mus musculus. The series is described as follows: Inhibition of EGFR phosphorylation in IGF1 and EGF-stimulated mouse liver at 50 mg/kg, ip pretreated 4 hrs before IGF1 and EGF stimulation. In kind it is functional, organism-based. Details: dose 50 mg/kg.
Series [15] is described as follows: Clearance in mouse. In kind it is ADME, organism-based. The following applies: in vivo.
Series [16] can be described thus: Protein binding in human plasma. To be noted: read-out: PPB (converted). In kind it is ADME, cell-free.
Series [17] can be described thus: Bioavailability in ip dosed mouse. To be noted: in vivo. In kind it is ADME, organism-based.
Series [18] can be described thus: Aqueous solubility at pH 7.2. In kind it is physicochemical. To be noted: buffer.
A further series addresses Cytochrome P450 2C9 (Homo sapiens, UniProt P11712). The series is described as follows: Inhibition of human CYP2C9. In kind it is ADME.
Series [19] can be described thus: Oral bioavailability in mouse. In kind it is ADME, organism-based. To be noted: in vivo.

pEC50, pIC50: −log10 of the molar value. Active and inactive are the calls of the source. The rule behind the calls is not given here.

Chain of Epidermal growth factor receptor (Homo sapiens, UniProt P00533, L858R) (P00533 25-1210 L858R limits assumed): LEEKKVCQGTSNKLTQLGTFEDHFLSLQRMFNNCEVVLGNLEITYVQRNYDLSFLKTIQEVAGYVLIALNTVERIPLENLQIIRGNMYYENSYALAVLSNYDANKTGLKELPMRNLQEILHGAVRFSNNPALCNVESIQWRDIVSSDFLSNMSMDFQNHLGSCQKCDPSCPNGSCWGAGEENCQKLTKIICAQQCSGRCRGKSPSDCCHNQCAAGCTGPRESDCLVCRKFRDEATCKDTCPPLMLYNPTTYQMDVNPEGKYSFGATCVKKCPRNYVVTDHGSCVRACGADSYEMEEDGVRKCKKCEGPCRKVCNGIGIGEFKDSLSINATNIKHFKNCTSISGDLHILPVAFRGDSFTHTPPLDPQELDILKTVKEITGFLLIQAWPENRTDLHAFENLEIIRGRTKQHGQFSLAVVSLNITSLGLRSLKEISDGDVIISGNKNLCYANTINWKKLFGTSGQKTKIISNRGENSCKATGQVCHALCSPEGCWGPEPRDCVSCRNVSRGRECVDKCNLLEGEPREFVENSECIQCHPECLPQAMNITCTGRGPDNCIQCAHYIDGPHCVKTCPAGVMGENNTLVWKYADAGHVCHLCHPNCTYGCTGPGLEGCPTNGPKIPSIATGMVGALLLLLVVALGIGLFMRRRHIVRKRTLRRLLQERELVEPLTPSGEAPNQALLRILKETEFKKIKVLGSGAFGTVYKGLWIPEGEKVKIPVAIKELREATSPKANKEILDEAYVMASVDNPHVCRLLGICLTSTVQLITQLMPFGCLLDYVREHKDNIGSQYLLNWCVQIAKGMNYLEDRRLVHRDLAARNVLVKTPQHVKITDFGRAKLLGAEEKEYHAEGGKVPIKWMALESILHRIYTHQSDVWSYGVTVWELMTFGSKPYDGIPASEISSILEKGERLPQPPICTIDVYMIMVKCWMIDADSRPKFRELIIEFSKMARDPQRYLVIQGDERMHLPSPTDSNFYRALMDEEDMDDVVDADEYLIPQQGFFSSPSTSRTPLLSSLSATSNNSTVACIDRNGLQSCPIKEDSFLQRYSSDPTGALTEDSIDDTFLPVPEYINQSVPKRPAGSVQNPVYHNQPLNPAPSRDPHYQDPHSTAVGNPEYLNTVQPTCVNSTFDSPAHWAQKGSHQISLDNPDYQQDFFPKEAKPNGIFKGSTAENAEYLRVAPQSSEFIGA
T2 sequence (P08069 31-736 limits assumed): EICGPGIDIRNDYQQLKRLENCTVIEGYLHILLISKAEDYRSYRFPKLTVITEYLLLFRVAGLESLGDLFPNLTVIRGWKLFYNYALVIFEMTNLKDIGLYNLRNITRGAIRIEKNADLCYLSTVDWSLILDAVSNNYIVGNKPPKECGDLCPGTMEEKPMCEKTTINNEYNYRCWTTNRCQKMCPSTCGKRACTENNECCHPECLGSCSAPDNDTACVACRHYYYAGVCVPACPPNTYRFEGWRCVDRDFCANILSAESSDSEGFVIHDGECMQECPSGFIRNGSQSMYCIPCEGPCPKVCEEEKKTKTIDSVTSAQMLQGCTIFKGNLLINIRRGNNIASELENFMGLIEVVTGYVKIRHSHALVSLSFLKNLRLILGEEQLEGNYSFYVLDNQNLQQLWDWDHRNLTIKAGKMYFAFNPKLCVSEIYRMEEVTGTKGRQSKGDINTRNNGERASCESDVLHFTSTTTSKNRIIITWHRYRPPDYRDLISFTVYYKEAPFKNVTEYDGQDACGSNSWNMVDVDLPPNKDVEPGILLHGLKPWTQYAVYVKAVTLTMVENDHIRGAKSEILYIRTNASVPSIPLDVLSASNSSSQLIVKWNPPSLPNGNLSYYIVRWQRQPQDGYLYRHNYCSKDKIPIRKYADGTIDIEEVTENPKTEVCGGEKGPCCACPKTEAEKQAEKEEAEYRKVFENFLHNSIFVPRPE
T2 sequence (P08069 741-1367 limits assumed): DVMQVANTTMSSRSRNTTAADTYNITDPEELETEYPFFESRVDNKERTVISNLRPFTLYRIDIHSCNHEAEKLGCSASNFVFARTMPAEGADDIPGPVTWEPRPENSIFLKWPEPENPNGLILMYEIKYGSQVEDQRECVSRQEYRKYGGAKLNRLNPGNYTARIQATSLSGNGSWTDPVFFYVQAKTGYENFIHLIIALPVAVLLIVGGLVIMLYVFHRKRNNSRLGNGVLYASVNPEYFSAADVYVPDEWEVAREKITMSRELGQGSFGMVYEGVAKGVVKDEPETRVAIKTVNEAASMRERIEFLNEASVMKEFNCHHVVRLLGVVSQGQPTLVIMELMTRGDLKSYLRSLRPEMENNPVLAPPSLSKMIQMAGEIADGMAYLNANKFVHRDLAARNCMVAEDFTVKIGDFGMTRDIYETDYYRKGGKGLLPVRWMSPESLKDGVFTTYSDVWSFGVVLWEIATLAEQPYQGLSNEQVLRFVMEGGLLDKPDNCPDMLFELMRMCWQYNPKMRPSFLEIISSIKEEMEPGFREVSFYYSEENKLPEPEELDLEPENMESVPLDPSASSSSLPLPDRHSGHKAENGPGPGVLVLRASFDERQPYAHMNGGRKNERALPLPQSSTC
Chain of Epidermal growth factor receptor (Homo sapiens, UniProt P00533) (P00533 whole entry): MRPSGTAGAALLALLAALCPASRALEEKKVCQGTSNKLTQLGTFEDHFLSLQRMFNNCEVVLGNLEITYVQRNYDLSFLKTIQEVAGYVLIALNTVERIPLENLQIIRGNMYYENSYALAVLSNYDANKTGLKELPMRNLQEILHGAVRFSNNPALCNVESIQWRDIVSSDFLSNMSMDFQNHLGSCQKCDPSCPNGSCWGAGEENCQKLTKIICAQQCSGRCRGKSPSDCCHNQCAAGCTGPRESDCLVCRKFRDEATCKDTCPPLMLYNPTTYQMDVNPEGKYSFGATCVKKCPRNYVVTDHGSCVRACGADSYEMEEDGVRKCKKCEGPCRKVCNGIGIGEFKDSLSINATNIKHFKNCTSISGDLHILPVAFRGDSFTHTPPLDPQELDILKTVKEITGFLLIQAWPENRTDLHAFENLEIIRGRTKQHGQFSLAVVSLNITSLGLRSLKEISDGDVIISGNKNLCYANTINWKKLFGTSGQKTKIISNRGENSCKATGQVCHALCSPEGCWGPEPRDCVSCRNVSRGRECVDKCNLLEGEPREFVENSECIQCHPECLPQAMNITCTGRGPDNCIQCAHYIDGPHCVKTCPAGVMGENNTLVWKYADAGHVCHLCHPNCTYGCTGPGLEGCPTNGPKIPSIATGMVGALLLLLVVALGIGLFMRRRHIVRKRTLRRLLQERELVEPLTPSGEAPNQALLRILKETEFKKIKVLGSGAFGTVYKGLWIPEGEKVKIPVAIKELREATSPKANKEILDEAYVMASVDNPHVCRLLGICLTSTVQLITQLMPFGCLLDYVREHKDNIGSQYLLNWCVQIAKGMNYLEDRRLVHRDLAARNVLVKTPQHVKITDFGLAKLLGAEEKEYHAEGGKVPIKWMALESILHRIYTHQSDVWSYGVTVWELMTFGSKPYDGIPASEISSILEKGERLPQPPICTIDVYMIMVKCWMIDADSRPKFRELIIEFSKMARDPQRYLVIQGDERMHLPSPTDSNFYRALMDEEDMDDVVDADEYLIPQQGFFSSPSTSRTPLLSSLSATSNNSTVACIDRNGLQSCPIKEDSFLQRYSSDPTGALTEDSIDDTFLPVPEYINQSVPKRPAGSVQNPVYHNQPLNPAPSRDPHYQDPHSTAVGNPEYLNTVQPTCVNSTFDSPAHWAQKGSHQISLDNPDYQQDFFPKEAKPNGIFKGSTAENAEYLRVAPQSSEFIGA
T1 sequence (P04626 whole entry): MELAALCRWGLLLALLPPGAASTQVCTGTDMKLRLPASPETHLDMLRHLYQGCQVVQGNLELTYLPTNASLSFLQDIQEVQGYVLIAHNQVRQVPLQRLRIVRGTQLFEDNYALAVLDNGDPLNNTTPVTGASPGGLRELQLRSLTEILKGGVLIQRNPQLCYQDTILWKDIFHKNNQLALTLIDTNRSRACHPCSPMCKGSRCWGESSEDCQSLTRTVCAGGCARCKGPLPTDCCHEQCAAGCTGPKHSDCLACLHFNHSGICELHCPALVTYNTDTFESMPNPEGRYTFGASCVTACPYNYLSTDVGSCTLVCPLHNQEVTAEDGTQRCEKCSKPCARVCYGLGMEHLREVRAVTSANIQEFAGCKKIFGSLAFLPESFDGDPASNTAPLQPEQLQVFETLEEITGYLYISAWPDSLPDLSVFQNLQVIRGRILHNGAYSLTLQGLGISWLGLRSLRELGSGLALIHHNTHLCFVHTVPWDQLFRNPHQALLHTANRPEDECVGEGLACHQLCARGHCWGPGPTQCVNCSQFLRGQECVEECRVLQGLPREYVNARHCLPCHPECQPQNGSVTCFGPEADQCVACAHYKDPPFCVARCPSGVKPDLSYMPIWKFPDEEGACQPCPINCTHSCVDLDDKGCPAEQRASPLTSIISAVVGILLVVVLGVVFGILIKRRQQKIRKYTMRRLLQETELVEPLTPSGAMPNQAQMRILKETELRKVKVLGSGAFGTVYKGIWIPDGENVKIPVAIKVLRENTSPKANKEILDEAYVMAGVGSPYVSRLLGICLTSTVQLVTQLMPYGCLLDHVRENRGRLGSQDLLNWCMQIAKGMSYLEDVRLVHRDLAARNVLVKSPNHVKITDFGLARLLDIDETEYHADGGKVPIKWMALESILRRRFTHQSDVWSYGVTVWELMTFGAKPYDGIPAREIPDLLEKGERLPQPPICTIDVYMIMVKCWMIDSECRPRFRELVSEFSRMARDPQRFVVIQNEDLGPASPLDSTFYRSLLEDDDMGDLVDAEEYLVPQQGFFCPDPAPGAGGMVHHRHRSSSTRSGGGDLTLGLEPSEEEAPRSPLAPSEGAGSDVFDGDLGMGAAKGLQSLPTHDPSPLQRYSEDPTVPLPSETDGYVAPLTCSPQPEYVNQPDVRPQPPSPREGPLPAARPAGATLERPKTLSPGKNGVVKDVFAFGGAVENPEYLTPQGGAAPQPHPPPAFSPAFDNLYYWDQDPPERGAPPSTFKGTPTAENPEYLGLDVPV

As to `COc1ccccc1Cc1nc2ccc(-c3nn([C@H]4CC[C@H](N5CCN(C(=O)N(C)C)CC5)CC4)c4ncnc(N)c34)cc2[nH]1`, the pEC50 in series [1] is 5.80; in series [3], 6.68; in [5], 6.09. The figures for the negative logarithm of the IC50 (pIC50) in series [2], in series [4] and in series [6] were 7.16, 7.77 and 7.60, respectively.
For the compound `CCOC(=O)N1CCN([C@H]2CC[C@H](n3nc(-c4ccc5nc(Cc6ccccc6OC)[nH]c5c4)c4c(N)ncnc43)CC2)CC1`, the pEC50 was 5.80 in [1], 6.61 in series [3] and 6.28 in series [5]. The pIC50 was 6.51 in [2], 6.57 in [4] and 7.52 in series [6].
On to `Nc1ncnc2c1c(-c1ccc3nc(Cc4ccccc4)[nH]c3c1)nn2[C@H]1CC[C@H](N2CCOCC2)CC1`, for which the pIC50 was 6.73 in series [4] and 6.57 in series [6].
Regarding `Nc1ncnc2c1c(-c1ccc3nc(Cc4cccs4)[nH]c3c1)nn2[C@H]1CC[C@H](N2CCOCC2)CC1`, the pIC50 in series [2] is 7.60; in series [4], 6.60; in series [6], 6.44.
In the case of `COCCCN1CCN([C@H]2CC[C@H](n3nc(-c4ccc5nc(Cc6ccccc6OC)[nH]c5c4)c4c(N)ncnc43)CC2)CC1`, the inhibition result in the series on Mus musculus [7], with Mus musculus [9], in the series with Mus musculus [12] and in the series on Mus musculus [14] was “Active” throughout. Further, the half-life in series [8] is 3.1 h. For the same compound, the negative-log EC50 (pEC50) is 7.03 in [1], 6.94 in [3] and 7.07 in [5]. Besides, the AUC with Mus musculus [10] was determined as 3.5 µmol·h/L/mg/kg; with Mus musculus [11] it was 0.42 µmol·h/L/mg/kg; in the series with Mus musculus [13], 2.71 µmol·h/L/mg/kg. Further, the pIC50 on Cytochrome P450 3A4 was < 4.70; in series [2], 7.09; against Cytochrome P450 2D6, 5.80; in series [4] it was 7.27; against Cytochrome P450 2C9, < 4.70; in series [6] it was 7.24. In series [15], this compound had a clearance of 7.83 mL/min/kg. The fraction unbound in [16] is 0.033. Also, the values for the bioavailability in [17] and in series [19] were 100% and 12%, respectively. Also, the solubility in series [18] is > 30 µM.
Turning to `COc1ccccc1Cc1nc2ccc(-c3nn([C@H]4CC[C@H](N5CCNCC5)CC4)c4ncnc(N)c34)cc2[nH]1`, the negative-log EC50 (pEC50) is 6.68 in series [1], 6.15 in [3] and 6.47 in [5]. The figures for the pIC50 in series [2], in series [4] and in series [6] were 7.59, 7.36 and 7.52, respectively.
With `COc1ccccc1Cc1nc2ccc(-c3nn([C@H]4CC[C@H](N5CCN(C(C)=O)CC5)CC4)c4ncnc(N)c34)cc2[nH]1`, the pEC50 is 6.18 in [1], 6.84 in [3] and 6.13 in series [5]. Besides, the values for the pIC50 in [2], in series [4] and in series [6] were 7.57, 7.23 and 6.89, respectively.
For the compound `COc1ccccc1Cc1nc2ccc(-c3nn([C@H]4CC[C@H](N5CCN(CC6CC6)CC5)CC4)c4ncnc(N)c34)cc2[nH]1`, the values for the negative logarithm of the EC50 (pEC50) in [1], in series [3] and in series [5] were 6.83, 6.72 and 7.04, respectively. The pIC50 in series [2] is 7.40; in [4] it was 7.89; in series [6], 8.52.
In series [4], `COc1ccccc1Cc1nc2ccc(-c3nn([C@H]4CC[C@H](N5CCOCC5)CC4)c4ncnc(N)c34)cc2[nH]1` showed a negative-log IC50 (pIC50) of 7.28.
`Nc1ncnc2c1c(-c1ccc3nc(Cc4ccccc4Cl)[nH]c3c1)nn2[C@H]1CC[C@H](N2CCOCC2)CC1`: the pIC50 in [2] is 7.44; in [4], 6.18; in [6], 7.19.

The term pEC50 denotes the EC50 on a negative log10 scale, so that one unit is a factor of ten. One may read the pIC50 as the negative decadic logarithm of the IC50, by convention in mol/L. Lower therefore signals a large IC50. One may read the half-life as how long it takes for the measured level to halve. High values mean slow loss, low ones fast loss. In general, clearance refers to a measure of how efficiently the substance is removed, as volume per time. High values mean a high capacity for elimination, low ones a low capacity for elimination. What is called bioavailability is the share of a dose that reaches the circulation, judged against a reference dose that is usually intravenous. The solubility is how much of the substance goes into solution per volume.
